# How the values were obtained:
# Test in all cases: Oligomerisation assay, mutated protein
# Type in all cases: biochemical, Chlamydia trachomatis
# CtHtrA I365D = conditions: I365D mutant, 10 mins incubation
# Procedure: (§1) E. coli DegP proteolysis activation involves the transition from resting hexamers via trimers to 12- and 24-mers following the peptide activator binding to the PDZ1 binding cleft. CtHtrA oligomer formation induced by Act1 addition was examined after incubation for 10 mins at 37°C. The wild type and mutant proteins were incubated with either the ß-casein based activator peptide (Act1), or with whole insulin (intact), or in the absence of any activator as a control. CtHtrA incubated in the absence of any added activators formed 24-mers with some hexamers detected after 10 mins (Fig. 5). […] The R299W mutant was present as hexamer and 24-mer in the control with no activator. […] The L302N mutant was not detected in any higher oligomeric form under any conditions. L302N was detected as faint hexamer and trimer but mostly monomer under all tested conditions (not visible on these gels). […] I365D was detected as hexamers, trimers, 12-mers, and some 24-mers when incubated in the absence of activators.
# (§2) The oligomerisation of HtrA into 12- and 24-mer complexes has been independently detected for E. coli HtrA (DegP). The oligomerisation of HtrA (DegP) was triggered by peptides from digested ß-casein [18]. Assays to detect whether CtHtrA and site directed mutant protein oligomerisation was triggered by substrates were conducted essentially as previously described (Merdanovic et al., 2010). Briefly, 2 mg/ml protein solutions in 100 mM sodium phosphate buffer pH 7.0 were pre-incubated to the required temperature. The ligands (activator peptide, or insulin) were added and at 10 min, and the proteins were fixed using 0.5% glutaraldehyde. Samples were fixed at room temperature for 2 min prior to addition of 1 M Tris pH 7.5 to remove any excess glutaraldehyde. Samples were incubated for another 10 min at room temperature prior to addition of SDS PAGE reducing loading buffer. The protein samples were examined on 3–8% TrisAcetate gradient polyacrylamide gels (Novex, Invitrogen) by silver staining. The proteins used in this study were not initially denatured by treatment with urea as, the refolding, formation of oligomers, and protease activity was never successfully detected with denatured CtHtrA. All assays were conducted in duplicate on three separate occasions with at least two gels of each experiment completed for each assay condition.
# CtHtrA R299W = conditions: R299W mutant, 10 mins incubation
# Procedure: as §1, §2
# CtHtrA R373A = conditions: R373A mutant, 10 mins incubation
# Procedure: as §1, §2
# CtHtrA R373A/R299W = conditions: R373A/R299W mutant, 10 mins incubation
# Source text: This activation was very similar to that observed for CtHtrA, and was the only condition during which any of the mutated proteins oligomerised in a similar profile to CtHtrA.
# as §2, with “All assays were conducted in duplicate on three separate occasions with at least two gels of each experiment completed for each assay condition.” left out
substance,measurement,setting,value
H-VLGPVRGPFPIIV-OH [Act1],oligomer formation induced by activator,CtHtrA I365D,"no 12-mers, but only hexamers and 24-mers were detected"
same,oligomer formation induced by activator,CtHtrA R299W,Low levels of 24-mer were formed
same,oligomer formation induced by activator,CtHtrA R373A,resulted in 24-mer formation
same,oligomer formation induced by activator,CtHtrA R373A/R299W,induced R373A/R299W 24-mer formation

# Source: publication PMC3169616, “Unique Residues Involved in Activation of the Multitasking Protease/Chaperone HtrA from Chlamydia trachomatis” (PLoS ONE, 2011)
